From US20180028507A1, “3-CARBAMOYLPHENYL-4-CARBOXAMIDE AND ISOPHTALAMIDE DERIVATIVES AS INHIBITORS OF THE WNT SIGNALLING PATHWAY” (Bayer Pharma Aktiengesellschaft, priority 2015, published 2018) come the findings set out here.

By IC50 is commonly meant the concentration that inhibits the measured activity by half.

Some results are limits rather than exact numbers.

In assay [1] the test system is constitutive active colorectal cancer cell (CRC) Wnt pathway. Nature of the assay: HCT116 TOPFlash cellular reporter assay (Super TopFlash vector, luciferase). The conditions noted are these: Homo sapiens, HCT-116; HCT116 Super TopFlash reporter cells, 36 hours incubation, dilution series 50 μM to 15 nM, luciferase expression. The class given is cell-based. Here is the method: In order to discover and characterize small molecules which inhibit the constitutive active colorectal cancer cell (CRC) Wnt pathway, a cellular reporter assay was employed. The corresponding assay cell was generated by transfection of the colorectal cancer cell line HCT116 (ATCC, #CCL-247) with the Super TopFlash vector (Morin, Science 275, 1997, 1787-1790; Molenaar et al., Cell 86 (3), 1996, 391-399). The HCT116 cell line is cultivated at 37° C. and 5% CO2 in DMEM/F-12 (Life Technologies, #11320-074), supplemented with 2 mM glutamine, 20 mM HEPES, 1.4 mM pyruvate, 0.15% Na-bicarbonate and 10% foetal bovine serum (GIBCO, #10270), this cancer cell line is pathophysiological relevant since it carries a deletion of position S45 in the β-catenin gene, leading to constitutive active Wnt signaling. Stable transfectants were generated by cotransfection with pcDNA3 and selection of stable transfected cells with 1 mg/ml G418.
(§1) In preparation of the assay, the two cell lines were plated 24 hours before at 10000 cells per well of a 384 micro titre plate (MTP) in 30 μL growth medium. Selective inhibitory activity for small molecules on the mutated Wnt pathway was determined after parallel incubation of both (TOP and FOP) HCT116 reporter cell lines with a compound dilution series from 50 μM to 15 nM in steps of 3.16-fold dilutions in CAFTY buffer (130 mM NaCl, 5 mM KCl, 20 mM HEPES, 1 mM MgCl2, 5 mM NaHCO3, pH 7.4) containing 2 mM Ca^2+ and 0.01% BSA. The compounds were thereby serially prediluted in 100% DMSO and thereafter in addition 50 fold into the CAFTY compound dilution buffer (described above). From this dilution 10 μL were added to the cells in 30 μL growth medium and incubated for 36 hours at 37° C. and 5% CO2.

The test system of assay [2] is HCT116 cells cotransfected with the FOP control vector (non-functional TCF elements). Description: HCT116 FOPFlash control reporter assay (FOP control vector, luciferase). The class given is cell-based. The conditions noted are these: Homo sapiens, HCT-116, 36 hours incubation, dilution series 50 μM to 15 nM, luciferase expression. The procedure:
In a parallel approach, HCT116 cells were cotransfected with the FOP control vector and pcDNA3. The FOP vector is identical to the TOP construct, but it contains instead of functional TCF elements a randomized, non-functional sequence. For this transfection a stable transfected cell line was generated as well.
as §1

As for `Nc1ccc(CNC(=O)c2cc(C(=O)Nc3ccc(-c4ccccc4)cc3)ccc2OC(F)(F)F)cn1` [Example 29, N^3-[(6-aminopyridin-3-yl)methyl]-N^1-(biphenyl-4-yl)-4-(trifluoromethoxy)isophthalamide], the IC50 in assay [1] worked out at 0.76 µM; in assay [2], 16 µM.
In the same order, the values of `O=C(Nc1ccc(-c2cccnc2)cn1)c1ccc(OC(F)(F)F)c(C(=O)NCc2cccnc2)c1` [Example 30, N^1-(3,3′-bipyridin-6-yl)-N^3-(pyridin-3-ylmethyl)-4-(trifluoromethoxy)isophthalamide] are 0.42 µM and 31.5 µM.
For `COCCNC(=O)c1cc(NC(=O)c2ccc(-c3ccccc3)cc2)ccc1OC` [Example 31, N-{4-methoxy-3-[(2-methoxyethyl)carbamoyl]phenyl}biphenyl-4-carboxamide], in that order: 4.59 µM and not below 50 µM.
In the same order, the values of `COc1ccc(NC(=O)c2ccc(-c3ccccc3)cc2)cc1C(=O)NCc1ccccn1` [Example 32, N-{4-methoxy-3-[(pyridin-2-ylmethyl)carbamoyl]phenyl} biphenyl-4-carboxamide] are 1.33 µM and not below 50 µM.
As to `COc1ccc(NC(=O)c2ccc(-c3ccccc3)cc2)cc1C(=O)NCc1ccccc1` [Example 33, N-[3-(benzylcarbamoyl)-4-methoxyphenyl]biphenyl-4-carboxamide], the IC50 in assay [1] is 3.35 µM; in assay [2], not below 50 µM.
In the same order, the values of `COc1ccc(NC(=O)c2ccc(-c3ccccc3)cc2)cc1C(=O)NCc1cccc(C)n1` [Example 34, N-(4-methoxy-3-{[(6-methylpyridin-2-yl)methyl]carbamoyl}phenyl) biphenyl-4-carboxamide] are 3.65 µM and not below 50 µM.
In the same order, the values of `COCC(C)(C)CNC(=O)c1cc(NC(=O)c2ccc(-c3ccccc3)cc2)ccc1OC` [Example 35, N-{4-methoxy-3-[(3-methoxy-2,2-dimethylpropyl)carbamoyl]phenyl}biphenyl-4-carboxamide] are 4.35 µM and not below 50 µM.
For `CCc1cc(NC(=O)c2cc(NC(=O)c3ccc(-c4ccccc4)cc3)ccc2OC)ccn1` [Example 36, N-{3-[(2-ethylpyridin-4-yl)carbamoyl]-4-methoxyphenyl}biphenyl-4-carboxamide], in that order: 1.43 µM and 29 µM.
Consider `COc1ccc(NC(=O)c2ccc(-c3ccccc3)cc2)cc1C(=O)NCc1cccnc1` [Example 37, N-{4-methoxy-3-[(pyridin-3-ylmethyl)carbamoyl]phenyl} biphenyl-4-carboxamide], for which the IC50 is 1.8 µM in assay [1] and 25 µM in assay [2].
In the same order, the values of `COc1cc(NC(=O)c2cc(C(=O)Nc3ccc(-c4ccccc4)cc3)ccc2OC)ccn1` [Example 38, N^1-(biphenyl-4-yl)-4-methoxy-N^3-(2-methoxypyridin-4-yl)isophthalamide] are 1.11 µM and 21 µM.
For `COc1ccc(C(=O)Nc2ccc(-c3ccccc3)cc2)cc1C(=O)NCc1ccccn1` [Example 39, N^1-(biphenyl-4-yl)-4-methoxy-N^3-(pyridin-2-ylmethyl)isophthalamide], in that order: 3.4 µM and not below 50 µM.
For `Cc1ncccc1NC(=O)c1cc(C(=O)Nc2ccc(-c3ccccc3)cc2)ccc1OC(F)(F)F` [Example 40, N^1-(biphenyl-4-yl)-N^3-(2-methylpyridin-3-yl)-4-(trifluoromethoxy) isophthalamide], in that order: 2.25 µM and not below 50 µM.
As for `COc1ccc(C(=O)Nc2ccc(-c3ccccc3F)nc2)cc1C(=O)NCc1cccnc1` [Example 41, N^1-[6-(2-fluorophenyl)pyridin-3-yl]-4-methoxy-N^3-(pyridin-3-ylmethyl)isophthalamide], the figures for the IC50 in assay [1] and in assay [2] were 1.6 µM and not below 50 µM, respectively.
For `O=C(Nc1ccc(-c2ccccc2F)nc1)c1ccc(OC(F)(F)F)c(C(=O)Nc2ccncc2F)c1` [Example 42, N^1-[6-(2-fluorophenyl)pyridin-3-yl]-N^3-(3-fluoropyridin-4-yl)-4-(trifluoromethoxy) isophthalamide], in that order: 2.13 µM and not below 50 µM.
In the same order, the values of `Cc1ccc(C(=O)Nc2ccc(-c3ccccc3)cc2)cc1C(=O)Nc1ccnc(F)c1` [Example 43, N^1-(biphenyl-4-yl)-N^3-(2-fluoropyridin-4-yl)-4-methylisophthalamide] are 1.37 µM and not below 50 µM.
In the same order, the values of `COc1cc(NC(=O)c2cc(C(=O)Nc3ccc(-c4ccccc4F)nc3)ccc2OC)ccn1` [Example 44, N^1-[6-(2-fluorophenyl)pyridin-3-yl]-4-methoxy-N^3-(2-methoxypyridin-4-yl)isophthalamide] are 2.82 µM and not below 50 µM.
Consider `O=C(Nc1ccc(-c2ccccc2)cc1)c1ccc(OC(F)(F)F)c(C(=O)Nc2cccnc2)c1` [Example 45, N^1-(biphenyl-4-yl)-N^3-(pyridin-3-yl)-4-(trifluoromethoxy) isophthalamide], for which the half-maximal inhibitory concentration (IC50) in assay [1] is 2.6 µM; in assay [2], not below 50 µM.
For `COc1ccc(C(=O)Nc2ccc(-c3ccccc3F)nc2)cc1C(=O)Nc1ccncc1C` [Example 46, N^1-[6-(2-fluorophenyl)pyridin-3-yl]-4-methoxy-N^3-(3-methylpyridin-4-yl)isophthalamide], in that order: 2.23 µM and not below 50 µM.
For `Cc1cncc(NC(=O)c2cc(C(=O)Nc3ccc(-c4ccccc4)cc3)ccc2OC(F)(F)F)c1` [Example 47, N^1-(biphenyl-4-yl)-N^3-(5-methylpyridin-3-yl)-4-(trifluoromethoxy) isophthalamide], in that order: 2.63 µM and not below 50 µM.
In the same order, the values of `CC(C)(C)OC(=O)Nc1ccc(CNC(=O)c2cc(C(=O)Nc3ccc(-c4ccccc4F)nc3)ccc2OC(F)(F)F)cn1` [Example 48, tert-butyl [5-({[5-{[6-(2-fluorophenyl)pyridin-3-yl]carbamoyl}-2-(trifluoromethoxy)benzoyl]amino}methyl)pyridin-2-yl]carbamate] are 2.05 µM and 37 µM.
Turning to `Nc1cccc(CNC(=O)c2cc(C(=O)Nc3ccc(-c4ccccc4F)nc3)ccc2OC(F)(F)F)n1` [Example 49, N^3-[(6-aminopyridin-2-yl)methyl]-N^1-[6-(2-fluorophenyl)pyridin-3-yl]-4-(trifluoromethoxy) isophthalamide], the figures for the half-maximal inhibitory concentration (IC50) in assay [1] and in assay [2] were 4.8 µM and not below 50 µM, respectively.
For `O=C(Nc1ccc(-c2cccnc2)cn1)c1ccc(OC(F)(F)F)c(C(=O)NCc2cnccn2)c1` [Example 50, N^1-(3,3′-bipyridin-6-yl)-N^3-(pyrazin-2-ylmethyl)-4-(trifluoromethoxy) isophthalamide], in that order: 1.7 µM and not below 50 µM.
For `Nc1ccc(CNC(=O)c2cc(C(=O)Nc3ccc(-c4ccccc4F)nc3)ccc2OC(F)(F)F)cn1` [Example 51, N^3-[(6-aminopyridin-3-yl)methyl]-N^1-[6-(2-fluorophenyl)pyridin-3-yl]-4-(trifluoromethoxy) isophthalamide], in that order: 1.8 µM and 14 µM.
For the compound `O=C(Nc1ccc(-c2ccccc2F)nc1)c1ccc(OC(F)(F)F)c(C(=O)NCc2ccccn2)c1` [Example 52, N^1-[6-(2-fluorophenyl)pyridin-3-yl]-N^3-(pyridin-2-ylmethyl)-4-(trifluoromethoxy) isophthalamide], the figures for the IC50 in assay [1] and in assay [2] were 1.75 µM and 12 µM, respectively.
In the same order, the values of `COc1ccc(C(=O)Nc2ccc(-c3ccccc3F)nc2)cc1C(=O)NCc1ccccn1` [Example 53, N^1-[6-(2-fluorophenyl)pyridin-3-yl]-4-methoxy-N^3-(pyridin-2-ylmethyl)isophthalamide] are 10 µM and not below 50 µM.
For `COc1ccc(C(=O)Nc2ccc(-c3ccccc3)cc2)cc1C(=O)NCc1ccc(NC(=O)OC(C)(C)C)nc1` [Example 54, tert-butyl [5-({[5-(biphenyl-4-ylcarbamoyl)-2-methoxybenzoyl]amino}methyl)pyridin-2-yl]carbamate], in that order: 3.2 µM and 16 µM.
On to `COc1ccc(C(=O)Nc2ccc(-c3ccccc3)cc2)cc1C(=O)Nc1cccnc1` [Example 55, N^1-(biphenyl-4-yl)-4-methoxy-N^3-(pyridin-3-yl)isophthalamide], for which the values for the IC50 in assay [1] and in assay [2] were 4.9 µM and 23 µM, respectively.
